According to ChEMBL document CHEMBL1697781, “Assessment of the health effects of chemicals in humans: II. Construction of an adverse effects database for QSAR modeling” (Curr Drug Discov Technol, 2004):

How the values were obtained:
Conditions in all cases: human; call rule not given here
Hepatotoxicity [1] = experiment: FDA HLAED, liver enzyme composite activity
Hepatotoxicity [2] = experiment: FDA HLAED, alkaline phosphatase increase
Hepatotoxicity [3] = experiment: FDA HLAED, serum glutamic oxaloacetic transaminase (SGOT) increase
Hepatotoxicity [4] = experiment: FDA HLAED, serum glutamic pyruvic transaminase (SGPT) increase
Hepatotoxicity [5] = experiment: FDA HLAED, lactate dehydrogenase (LDH) increase
Hepatotoxicity [6] = experiment: FDA HLAED, gamma-glutamyl transferase (GGT) increase
Throughout, for GGT Increase - Index Value: reference of the scale not given here.
Throughout, for LDH Increase - Index Value: reference of the scale not given here.

Row | SMILES | Composite Activity - Active (Hepatotoxicity [1]) | Composite Activity - Marginal (Hepatotoxicity [1]) | Composite Activity - Score (Hepatotoxicity [1]) | Alkaline Phosphatase Increase - Activity Score (Hepatotoxicity [2]) | Alkaline Phosphatase Increase - Index Value (Hepatotoxicity [2]) | Alkaline Phosphatase Increase - Number of Reports (Hepatotoxicity [2]) | SGOT Increase - Activity Score (Hepatotoxicity [3]) | SGOT Increase - Index Value (Hepatotoxicity [3]) | SGOT Increase - Number of Reports (Hepatotoxicity [3]) | SGPT Increase - Activity Score (Hepatotoxicity [4]) | SGPT Increase - Index Value (Hepatotoxicity [4]) | SGPT Increase - Number of Reports (Hepatotoxicity [4]) | LDH Increase - Activity Score (Hepatotoxicity [5]) | LDH Increase - Index Value (Hepatotoxicity [5]) | LDH Increase - Number of Reports (Hepatotoxicity [5]) | GGT Increase - Activity Score (Hepatotoxicity [6]) | GGT Increase - Index Value (Hepatotoxicity [6]) | GGT Increase - Number of Reports (Hepatotoxicity [6])
1 | CCN1CCN(C(=O)N[C@@H](C(=O)N[C@@H]2C(=O)N3C(C(=O)O)=C(CSc4nnnn4C)CS[C@H]23)c2ccc(O)cc2)C(=O)C1=O [CEFOPERAZONE] | 0 | 0 | Inactive | Inactive | 0 | < 4 | Inactive | 0.4 | >= 4 | Inactive | 0.2 | < 4 | Inactive | 0.1 | < 4 | Inactive | 0 | < 4
2 | CO/N=C(\C(=O)N[C@@H]1C(=O)N2C(C(=O)O)=C(COC(C)=O)CS[C@H]12)c1csc(N)n1 [CEFOTAXIME] | 1 | 0 | Inactive | Inactive | 0.3 | < 4 | Active | 4.7 | >= 4 | Inactive | 2 | < 4 | Inactive | 0 | < 4 | Inactive | 0 | < 4
3 | CO[C@@]1(NC(=O)C2SC(=C(C(N)=O)C(=O)O)S2)C(=O)N2C(C(=O)O)=C(CSc3nnnn3C)CS[C@@H]21 (stereo partly drawn) [CEFOTETAN] | 0 | 0 | Inactive | Inactive | 0.7 | < 4 | Inactive | 0 | < 4 | Inactive | 0 | < 4 | Inactive | 0 | < 4 | Inactive | 0 | < 4
4 | CO[C@@]1(NC(=O)Cc2cccs2)C(=O)N2C(C(=O)O)=C(COC(N)=O)CS[C@@H]21 [CEFOXITIN] | 0 | 0 | Inactive | Inactive | 0 | < 4 | Inactive | 0 | < 4 | Inactive | 0 | < 4 | Inactive | 0 | < 4 | Inactive | 0 | < 4
5 | COCC1=C(C(=O)OC(C)OC(=O)OC(C)C)N2C(=O)[C@@H](NC(=O)/C(=N\OC)c3csc(N)n3)[C@H]2SC1 (stereo partly drawn) [CEFPODOXIME PROXETIL] | 0 | 0 | Inactive | Inactive | 1 | >= 4 | Inactive | 1 | >= 4 | Inactive | 0.8 | >= 4 | Inactive | 0.2 | < 4 | Inactive | 0.5 | < 4
6 | COCC1=C(C(=O)O)N2C(=O)[C@@H](NC(=O)/C(=N\OC)c3csc(N)n3)[C@H]2SC1 [CEFPODOXIME] | 0 | 0 | Inactive | Inactive | 1 | >= 4 | Inactive | 1 | >= 4 | Inactive | 0.8 | >= 4 | Inactive | 0.2 | < 4 | Inactive | 0.5 | < 4
7 | CC=CC1=C(C(=O)O)N2C(=O)[C@@H](NC(=O)[C@H](N)c3ccc(O)cc3)[C@H]2SC1 [CEFPROZIL] | 0 | 0 | Inactive | Inactive | 0.2 | >= 4 | Inactive | 0.4 | >= 4 | Inactive | 0.2 | >= 4 | Inactive | 0.2 | >= 4 | Inactive | 0.1 | < 4
8 | CC(C)(O/N=C(\C(=O)N[C@@H]1C(=O)N2C(C(=O)[O-])=C(C[n+]3ccccc3)CS[C@H]12)c1csc(N)n1)C(=O)O [CEFTAZIDIME] | 0 | 0 | Inactive | Inactive | 0 | < 4 | Inactive | 0 | < 4 | Inactive | 0 | < 4 | Inactive | 0 | < 4 | Inactive | 0 | < 4
9 | Nc1nc(/C(=C/CC(=O)O)C(=O)N[C@@H]2C(=O)N3C(C(=O)O)=CCS[C@H]23)cs1 [CEFTIBUTEN] | 0 | 0 | Inactive | Inactive | 0 | < 4 | Inactive | 0 | < 4 | Inactive | 0 | < 4 | Inactive | 0 | < 4 | Inactive | 0 | < 4
10 | CO/N=C(\C(=O)N[C@@H]1C(=O)N2C(C(=O)O)=CCS[C@H]12)c1csc(N)n1 [CEFTIZOXIME] | 2 | 0 | Active | Inactive | 2.9 | >= 4 | Active | 7.8 | >= 4 | Active | 4 | >= 4 | Inactive | 0.3 | < 4 | Inactive | 0 | < 4
11 | CO/N=C(\C(=O)N[C@@H]1C(=O)N2C(C(=O)O)=C(CSc3nc(=O)c(=O)[nH]n3C)CS[C@H]12)c1csc(N)n1 [CEFTRIAXONE] | 0 | 3 | Inactive | Marginally Active | 3.4 | >= 4 | Marginally Active | 3.8 | >= 4 | Marginally Active | 3.8 | >= 4 | Inactive | 1.9 | >= 4 | Inactive | 2.6 | >= 4
